Data from US20240409584A1, “PEPTIDE HAVING ANTI-AGING ACTIVITY, AND USE THEREOF” (CAREGEN CO., LTD., priority 2021, published 2024).

Experiments:
[1] = test system: NIH3T3 cells; test: Intracellular ROS increased by UVA irradiation, DCFH-DA/FACS; format: cell-based, mouse; conditions: 8 J/cm^2 UVA, peptide 10, 50, 100 μM, 24 hours after irradiation, FIG. 3A
Method: (§1) First, NIH3T3 cells and HaCaT cells were seeded in a 6-well plate at a cell density of 5×10^5 cell/well, respectively, and then the cells were cultured in DMEM medium containing 10% fetal bovine serum (FBS) for 24 hours. The cultured cells were washed once with serum free DMEM medium, and then the peptide of the present invention was mixed in 1 mL of the serum free DMEM medium at each of concentrations of 10, 50, and 100 μM, and dispensed into the cells. A positive control (PC) was treated with 50 μM of Trolox instead of the above peptide.
(§2) The cells were cultured in a CO2 incubator at 37° C. for 1 hour. The medium of the cultured cells was transferred to a tube, 1 ml of PBS was added, and then the NIH3T3 cells were irradiated with 8 J/cm^2 of UVA and the HaCaT cells were irradiated with 15 mJ/cm^2 of UVB using a UV irradiator (VILBER LOURMAT, Cat No.: 3102-BSU, France). After removing PBS, 900 μL of the medium transferred to the tube was dispensed, and culture was performed in a CO2 incubator at 37° C. for 24 hours. After treatment with 10 μM of dichloro-dihydro-fluorescein diacetate (DCFH-DA), wrapping with a foil was performed, and culture was performed in a CO2 incubator at 37° C. for 30 minutes. […] After centrifugation, the cells were washed with PBS, and a fluorescence value was measured through FACS.

[2] = test system: Col1a1; test: Col1a1 (collagen) gene expression in fibroblasts, RT-PCR; format: cell-based, mouse; conditions: NIH3T3 cells, peptide 10, 50, 100 μM, 24 hours, serum free DMEM; FIGS. 1A, 1B
Method: (§3) First, NIH3T3 cells (mouse fibroblast cell line) were seeded in a 6-well plate at a cell density of 3×10^5 cell/well, and then the cells were cultured in DMEM medium containing 10% fetal bovine serum (FBS) for 24 hours. The cultured cells were washed once with serum free DMEM medium, and the peptide of the present invention was mixed in 1 mL of the serum free DMEM medium at each of concentrations of 10, 50, and 100 μM, and dispensed into the cells. A positive control (PC) was treated with 5 ng/ml of TGF-B instead of the above peptide. The cells were cultured in a CO: incubator at 37° C. for 24 hours.
(§4) The cultured cells were washed twice with PBS, and RNA was extracted from the cells using easy blue (iNtRON, Cat. No.: 17061, Korea). The amount of RNA extracted was quantified, 1, 000 ng of RNA was added per tube, and RT reaction was performed using a kit (enzynomics, Cat. No.: PT200, Korea). RT-PCR was performed using a PCR kit (enzynomics, Cat. No.: P581T, Korea). The sequences of the primers of collagen, fibronectin, and elastin used in RT-PCR and the sequence of the primer of GAPDH used to compare the total RNA amount of each treatment group are shown in [Table 2].

[3] = test system: SIRT1; test: SIRT1 gene expression in keratinocytes, RT-PCR; format: cell-based; conditions: HaCaT cells, peptide 10, 50, 100 μM, 24 hours; FIGS. 2A, 2C
Method: (§5) First, HaCaT cells were seeded in a 6-well plate at a cell density of 3×10^5 cell/well, and then the cells were cultured in DMEM medium containing 10% fetal bovine serum (FBS) for 24 hours. The cultured cells were washed once with serum free DMEM medium, and then the peptide of the present invention was mixed in 1 mL of the serum free DMEM medium at each of concentrations of 10, 50, and 100 μM, and dispensed into the cells. A positive control (PC) was treated with 100 nM of EGF instead of the above peptide. The cells were cultured in a CO: incubator at 37° C. for 24 hours.
(§6) The cultured cells were washed twice with PBS, and then RNA was extracted from the cells using easy blue (iNtRON, Cat. No.: 17061, Korea). The extracted RNA was subjected to RT reaction using a kit (enzynomics, Cat. No.: RT200, Korea). Thereafter, RT-PCR was performed using a PCR kit (enzynomics, Cat. No.: R581T, Korea). The sequences of the primers of AQP3 and SIRT1 used in RT-PCR and the sequence of the primer of GAPDH used to compare the total RNA amount of each treatment group are shown in [Table 2].

[4] = test system: MMP-2; test: MMP-2 activity increased by UV in fibroblasts, gelatin zymography; format: cell-based, mouse; conditions: fibroblasts (NIH3T3), 6 J/cm^2 UVA, peptide 10, 50, 100 μM, 6 hours after irradiation; FIG. 6A
[5] = test system: Colla1; test: Col1a1 gene expression decreased by UV in fibroblasts, RT-PCR; format: cell-based, mouse; conditions: NIH3T3 cells, 6 J/cm^2 UVA, peptide 10, 50, 100 μM, 6 hours after irradiation; FIGS. 4A, 4B
Method: as §1, with “First, NIH3T3 cells were” for “First, NIH3T3 cells and HaCaT cells were”, “5×10^5 cell/well, and then” for “5×10^5 cell/well, respectively, and then”, “treated with 2.5 mM of N-acetylcysteine or 50 μM” for “treated with 50 μM”, “above peptide. The cells were cultured in a CO: incubator at 37° C. for 1 hour.” for “above peptide.”
(§7) The medium of the cultured cells was transferred to a tube (e-tube), 1 ml of PBS was added, and irradiation was performed with 6 J/cm^2 of UVA using a UV irradiator (VILBER LOURMAT, Cat No.: 3102-BSU, France). After removing PBS, 900 μL of the medium transferred to the tube was dispensed, and culture was performed in a CO2 incubator at 37° C. for 6 hours. The cultured cells were washed twice with PBS, and then RNA was extracted from the cells using easy blue (iNtRON, Cat. No.: 17061, Korea). The amount of RNA extracted was quantified, 1,000 ng of RNA was added per tube, and RT reaction was performed using a kit (enzynomics, Cat. No.: RT200, Korea). Thereafter, RT-PCR was performed using a PCR kit (enzynomics, Cat. No.: R581T, Korea). […]

[6] = test system: MMP-1; test: MMP-1 expression increased by UV in fibroblasts, western blot; format: cell-based, mouse; conditions: NIH3T3 cells, 6 J/cm^2 UVA, peptide 10, 50, 100 μM, 24 hours after irradiation; FIG. 5A
Method: as §1, with “medium, and the peptide” for “medium, and then the peptide”, “treated with 25 and 50 µM” for “treated with 50 μM”, “and 50 µM of Trolox” for “with 50 μM of Trolox”
(§8) The cells were cultured in a CO2 incubator at 37° C. for 1 hour. The medium of the cultured cells was transferred to a tube (e-tube), 1 ml of PBS was added, and then the NIH3T3 cells were irradiated with 6 J/cm^2 of UVA and the HaCaT cells were irradiated with 15 mJ/cm^2 of UVB using a UV irradiator (VILBER LOURMAT, Cat No.: 3102-BSU, France). After removing PBS, 900 μL of the medium transferred to the tube was added, and culture was performed in a CO2 incubator at 37° C. for 24 hours. The medium of the cultured cells was transferred to a tube, the cells were washed twice with PBS, and then a cell lysis buffer was added to lyse the cells. A sample was prepared by treating the cells with 5× sample buffer, and then SDS-PAGE was performed using 10% SDS-PAGE gel. The proteins isolated through SDS-PAGE were transferred to a PVDF membrane. […]

[7] = test system: MMP-1; test: MMP-1 expression increased by UV in keratinocytes, western blot; format: cell-based; conditions: HaCaT cells, 15 mJ/cm^2 UVB, peptide 10, 50, 100 μM, 24 hours after irradiation; FIG. 5B
Method: as §1, with “medium, and the peptide” for “medium, and then the peptide”, “treated with 25 and 50 µM” for “treated with 50 μM”, “and 50 µM of Trolox” for “with 50 μM of Trolox”
as §8

[8] = test system: fibronectin; test: Fibronectin gene expression decreased by UV in fibroblasts, RT-PCR; format: cell-based, mouse; conditions: NIH3T3 cells, 6 J/cm^2 UVA, peptide 10, 50, 100 μM, 6 hours after irradiation; FIGS. 4A, 4C
Method: as §1, with “First, NIH3T3 cells were” for “First, NIH3T3 cells and HaCaT cells were”, “5×10^5 cell/well, and then” for “5×10^5 cell/well, respectively, and then”, “treated with 2.5 mM of N-acetylcysteine or 50 μM” for “treated with 50 μM”, “above peptide. The cells were cultured in a CO: incubator at 37° C. for 1 hour.” for “above peptide.”
as §7

[9] = test system: fibronectin; test: Fibronectin gene expression in fibroblasts, RT-PCR; format: cell-based, mouse; conditions: NIH3T3 cells, peptide 10, 50, 100 μM, 24 hours, serum free DMEM; FIGS. 1A, 1C
Method: as §3, §4

[10] = test system: elastin; test: Elastin gene expression in fibroblasts, RT-PCR; format: cell-based, mouse; conditions: NIH3T3 cells, peptide 10, 50, 100 μM, 24 hours, serum free DMEM; FIGS. 1A, 1D
Method: as §3, §4

[11] = test system: MMP-9; test: MMP-9 activity increased by UV in keratinocytes, gelatin zymography; format: cell-based; conditions: keratinocytes (HaCaT), 15 mJ/cm^2 UVB, peptide 10, 50, 100 μM, 6 hours after irradiation; FIG. 6B
[12] = test system: AQP3; test: AQP3 gene expression in keratinocytes, RT-PCR; format: cell-based; conditions: HaCaT cells, peptide 10, 50, 100 μM, 24 hours; FIGS. 2A, 2B
Method: as §5, §6

[13] = test system: HaCaT cells; test: Intracellular ROS increased by UVB irradiation, DCFH-DA/FACS; format: cell-based; conditions: 15 mJ/cm^2 UVB, peptide 10, 50, 100 μM, 24 hours after irradiation, FIG. 3B
Method: as §1, §2

## DSSPLRSPSYAS [SEQ ID NO: 1]
[1]
  intracellular reactive oxygen species level increased by UV irradiation: decreased
[2]
  expression of the collagen gene: gradually increased as a concentration of the peptide increased
[3]
  mRNA level of SIRT1: increased
[4]
  activity of MMP-2 protein increased by ultraviolet rays: inhibited
[5]
  mRNA level of Colla1 decreased by UV irradiation: increased again
[6]
  expression of MMP-1 increased by UV irradiation: inhibited
[7]
  expression of MMP-1 increased by UV irradiation: inhibited
[8]
  mRNA level of fibronectin decreased by UV irradiation: increased again
[9]
  expression of the fibronectin gene: gradually increased as a concentration of the peptide increased
[10]
  expression of the elastin gene: gradually increased as a concentration of the peptide increased
[11]
  activity of MMP-9 protein increased by ultraviolet rays: inhibited
[12]
  mRNA level of AQP3: increased
[13]
  intracellular reactive oxygen species level increased by UV irradiation: decreased
